# Measurements as given in PubChem BioAssay AID1645848.
# Settings: buffer; pH 7.4; 6.0 h; 150.0 µM
row,SMILES,solubility kinetic [µg/mL]
1,Cc1cc(-c2nnc3n2CCCCC3)c(C)n1-c1cccnc1,32.5
2,NC(=O)C1CCN(c2cc(-c3ccc4c(c3)OCCCO4)ncn2)CC1,> 52
3,COc1ncccc1-c1cc2c(ccn2CC2CCN([S+](C)(=O)[O-])CC2)c(N2CCOCC2)n1,50.2
4,CC(C)n1cc(-c2ccc3c(c2)N(C)CC3)c2c(NS(=O)(=O)c3ccn(C)n3)ccnc21,36.7
5,Cc1c(O)ccc2c1OC(C)(C)CC2,8.29
6,COc1ncc(-c2n[nH]c3c2CC(=O)N(c2ccccc2)C3)cn1,5.46
7,Nc1nc2c(s1)C(c1cccc(Cl)c1Cl)CC(=O)N2 (stereo unspecified),< 1
8,Clc1ccc(C2=Nn3c(nnc3-c3ccncc3)SC2)cc1,1.45
9,NC(=O)C1CCN(c2nc(-c3ccc(Oc4ccccc4)cc3)cs2)CC1,< 1
10,Cc1ccc(S(=O)(=O)Nc2cnccc2C(=O)Nc2ccc(C#N)cc2)cc1,> 58
11,O=C(NC1CCCCC1)N1Cc2[nH]cnc2C[C@H]1c1nc(-c2cccc([N+](=O)[O-])c2)no1,14.2
12,COC1C(OC(=O)c2ccc(C)[nH]2)C(O)C(Oc2ccc3c(O)c(NC(=O)c4ccc(O)c(CC=C(C)C)c4)c(=O)oc3c2Cl)OC1(C)C (stereo unspecified),> 100
13,O=C(NC1CCCc2c1cnn2-c1ccc(O)cc1)c1ccccn1 (stereo unspecified),40.8
14,CC(C)N(CCC(=O)c1ccc2ccccc2c1)Cc1ccccc1,13.4
15,O=c1[nH]nc(Sc2ncc([N+](=O)[O-])s2)n1-c1ccc2c(c1)OCCO2,28.7
16,FC(F)(F)c1cccc(N2CCN(C(=S)Nc3ccccn3)CC2)c1,13.4
17,COc1ccc(C(=O)NC2CCN(c3cnn(CC4CC4)c(=O)c3)CC2)cc1,8.61
18,O=C1Nc2cccc(Cl)c2/C1=C\c1cc(Cl)c(O)c(Cl)c1,< 1
19,C=CCc1cccc(CNc2ccc(S(=O)(=O)Nc3nccs3)cc2)c1O,23.1
20,C#CCNC(=O)c1nc(-c2cccnc2)c2ccccn12,> 61

row,SMILES,solubility kinetic [µg/mL]
1,C[C@@]1(O)[C@H](O)[C@@H](CO)O[C@H]1n1ccc(N)nc1=O,> 38
2,CN([C@@H](Cc1ccc(OS(=O)(=O)c2cccc3cnccc23)cc1)C(=O)N1CCN(c2ccccc2)CC1)S(=O)(=O)c1cccc2cnccc12,1.32
3,COc1ccc(OC)c(-c2nnc3ccc(-c4ccc(OC)c(O[C@@H]5CCOC5)c4)nn23)c1,> 66
4,CC(C)(C)OC(=O)N[C@@H](Cc1ccc(OS(=O)(=O)c2cccc3cnccc23)cc1)C(=O)N1CCCN(C(=O)OC(C)(C)C)CC1,< 1
5,Cc1ccccc1C(=O)Nc1sc2c(c1C(=O)NCc1ccco1)CCC(C(C)(C)C)C2 (stereo unspecified),< 1
6,CC(C)(C)C1CCc2[nH]c3ccccc3c(=O)c2C1 (stereo unspecified),1.88
7,CN1CCN(C(c2ccccc2)c2ccccc2)CC1,> 39
8,Nc1cc2nc3ccccc3oc-2cc1=O,17.9
9,Cc1cc(C)nc(N2CCCC(C(=O)NCCc3ccc(F)cc3)C2)n1 (stereo unspecified),2.77
10,NC(=O)C1CCN(c2nc(-c3cccnc3)cs2)CC1,> 43
11,O=[S+]([O-])(Nc1nccs1)c1ccc(NCc2cccc3c2NCC3)cc1,> 57
12,Cc1nc(NC2CCCCC2)c2nc(-c3ccccc3)n(CCN(C)C)c2n1,> 56
13,COc1ccc(OCc2ccc(-c3nc(C#N)c(NC(C)c4ccccc4)o3)o2)cc1 (stereo unspecified),< 1
14,COc1ccc(OC)c(-c2cc(C(=O)N3CCN(c4ncccn4)CC3)c3ccccc3n2)c1,24.5
15,FC(F)(F)c1cccc(Nc2ccc(CNc3nc(-c4ccccc4C(F)(F)F)nc4ccccc34)cc2)c1,< 1
16,COc1ccc(-n2nc(C3CCN(C(=O)C4CC4)CC3)[nH]c2=O)cc1,> 51
17,O=C(NCC1(c2nc(-c3ccccc3)cs2)CCOCC1)c1cccc(-c2noc(C(F)(F)F)n2)c1,4.96
18,O=C(C1CCN(c2nc(-c3ccc(Br)cc3)cs2)CC1)N1CCNCC1,> 64
19,O=C1CCCC2=C1C(c1ncccc1Br)N=C(Nc1nc3ccccc3o1)N2 (stereo unspecified),7.87
20,O=C(Nc1nc(-c2ccccc2)cs1)c1ccncc1NS(=O)(=O)c1cccnc1,> 65

row,SMILES,solubility kinetic [µg/mL]
1,CCOC(=O)c1c(NC(=O)CN2CCCCC2)sc2c1CCN(C(=O)OCC)C2,27.6
2,O=C(CCCc1ccc2cccnc2n1)NCc1cc(-c2ccc(F)c(C(F)(F)F)c2)no1,3.29
3,O=C(Nc1cn[nH]c1-c1nc2ccc(CN3CCOCC3)cc2[nH]1)NC1CC1,> 38
4,CCN(CCN(C)C)C(=O)C1CCN(S(=O)(=O)c2c(C)noc2/C=C/c2ccccc2F)CC1,> 49
5,COc1cccc(S(=O)(=O)Nc2cnccc2C(=O)Nc2nc(-c3ccccc3)cs2)c1,53.9
6,O=S(=O)(Nc1nccs1)c1ccc(NCc2ccccc2)cc1,31.9
7,CCN(CC)CCCNC(=O)c1oc2c(c1C)-c1nn(Cc3ccc(Cl)cc3)cc1CC2,> 67
8,c1ccc2c(NC3CCCCC3)nc(-c3ccncc3)nc2c1,< 1
9,Cc1cn(CCN2CCN(c3ccccc3-c3cc(C#N)cc(C(=O)NCCCN4CCCC4)c3)CC2)c2ccccc12,14.6
10,COc1ccc(-c2nc3ccc(C4=NNC(=O)CC4C)cc3[nH]2)cc1 (stereo unspecified),< 1
11,CSc1ncc(Cl)c(C(=O)Nc2c(C)cccc2C)n1,1.91
12,CCOc1ccc(CCNC(=O)c2cc3cnccc3n2Cc2cccc(C)c2)cc1OCC,> 68
13,CC(=O)c1ccc(N2CCN(S(=O)(=O)c3ccc4c(c3)n(C)c(=O)n4C)CC2)cc1,2.6
14,CCN(CC)S(=O)(=O)c1ccc(N2CCCC2)c(NS(=O)(=O)c2ccc(C)cc2)c1,4.02
15,O=C1CCCc2cc(S(=O)(=O)Nc3cnccc3C(=O)Nc3nc(-c4ccccc4)cs3)ccc2N1,62.9
16,Fc1ccc(Nc2ccnc(-c3ccncc3)n2)cc1F,1.22
17,COc1c(C)c2c(c(O)c1C/C=C(\C)CCC(=O)OCCN1CCOCC1)C(=O)OC2,> 64
18,Cc1cc(-c2nnc3n2CCCCC3)c(C)n1-c1cccc(C(F)(F)F)c1,32.8
19,c1coc(-c2nc3ccncc3[nH]2)c1,13.9
20,CC[C@@](C)(Nc1ccnc(-c2c[nH]c3ncccc23)n1)C(=O)NCC(F)(F)F,> 58

# The next lines start with the values.
row,solubility kinetic [µg/mL],SMILES
1,< 1,COc1ccccc1C(=O)Nc1nnc(SCc2cc(=O)c3ccccc3[nH]2)s1
2,< 1,COc1ccc(N2Cc3cccc(C(=O)Nc4ccc(C(C)C)cc4)c3C2=O)cc1
3,< 1,CCOC(=O)c1ccc(N2C(=O)c3n[nH]c(-c4cccs4)c3C2c2ccc(Cl)cc2Cl)cc1 (stereo unspecified)
4,< 1,CN(C(=O)CSc1nc2ccc(NC(=O)c3ccc(F)cc3)cc2s1)c1ccccc1
5,< 1,O=C(Nc1ncc(Cc2ccc(C(F)(F)F)cc2)s1)c1cnc(-c2ccccc2)o1
6,34.6,CC1=C(C(=O)Nc2nncs2)C(c2[nH]ncc2Cl)N=C(Nc2nc3ccccc3o2)N1 (stereo unspecified)
7,< 1,Cc1ccc(/C=C/c2nc3ccccc3n2S(=O)(=O)c2cccc(Cl)c2)cc1
8,< 1,Cc1ccc(S(=O)(=O)Nc2ccccc2C(=O)Nc2ncc(-c3ccccc3)o2)cc1
9,< 1,CSc1ccc(/C=C/c2nc3ccccc3n2S(=O)(=O)c2cccc(Cl)c2)cc1
10,< 1,Cc1ccc(S(=O)(=O)Nc2cc(F)ccc2C(=O)Nc2nc(-c3ccccc3)cs2)cc1
11,6.85,COc1ccc(Cn2c(C(=O)O)c(CNCc3cccc(OC)c3)c3ccc(C)cc32)cc1
12,< 1,Cc1ccc(-c2cc(C(=O)Nc3ccc(-n4cncn4)cc3)c3ccccc3n2)cc1C
13,< 1,Cc1ccc(C(=O)Nc2cccc(C(F)(F)F)c2)cc1Nc1nc(-c2cccnc2)nc2c1cnn2C
14,< 1,CS(=O)(=O)CCNCc1ccc(-c2ccc3ncnc(Nc4ccc(OCc5cccc(F)c5)c(Cl)c4)c3c2)o1
15,27.7,CC(C)c1ccc(CC(=O)N2CCCc3ncc(C(=O)Nc4cccnc4)cc32)cc1
16,3.75,O=C(Nc1ccc(N2CCN(C(=O)c3ccccc3F)CC2)cc1)c1cncc(Br)c1
17,39,CC(=O)c1c(C)[nH]c(C(=O)Nc2ccc(OCCCN(C)C)c(S(=O)(=O)Nc3ccc(Br)cc3)c2)c1C
18,< 1,CCC(=O)N1CCN(c2ccc(-n3c(=O)ccc4cnc5ccc(-c6cnc7ccccc7c6)cc5c43)cc2C(F)(F)F)CC1

row,solubility kinetic [µg/mL],SMILES
1,63.8,Cc1sc2c(c1C)C(c1ccc(Cl)cc1)=N[C@H](CC(=O)NCCCCNC(=O)COc1cccc3c1C(=O)N([C@H]1CCC(=O)NC1=O)C3=O)c1nnc(C)n1-2
2,< 1,Cc1ccc(-n2c(=O)c3oc4ccccc4c3n(CC(=O)Nc3ccc(F)c(Cl)c3)c2=O)cc1C
3,< 1,CCOc1ccccc1N(CC(=O)Nc1cc(OC)ccc1OC)S(=O)(=O)c1ccccc1
4,< 1,CCCCOc1ccc(C(=O)N2CCC(c3n[nH]c(=O)n3-c3ccc(C)cc3)CC2)cc1
5,< 1,N#Cc1cnccc1-c1nc(Nc2ccc(F)c(F)c2)c2ccccc2n1
6,< 1,Cc1ccc(C(=O)Nc2ccc(CN3CCN(C)CC3)c(C(F)(F)F)c2)cc1C#Cc1cnc2cccnn12
7,< 1,CCc1cccc(-n2nnc(-c3nsc(NC(=O)c4cccc(OC)c4)n3)c2C)c1
8,< 1,COc1cc(Cl)ccc1C(=O)Nc1nc(-c2ccccc2)cs1
9,< 1,COc1ccc(C(=O)Nc2ccc3c(c2)N(C2CCCC2)C(=O)c2ccccc2S3)cc1OC
10,< 1,Cc1ccc(-c2ccc(CNc3nc(-c4ccccc4C(C)C)ncc3F)cc2)cn1
11,> 70,O=C(Nc1nc(-c2ccccc2)cs1)c1ccncc1NS(=O)(=O)c1ccc(F)cc1F
12,11.7,O=C(O)c1ccc(Nc2nc(-c3cc4ccccc4oc3=O)cs2)cc1O
13,< 1,COc1ccc(-c2ccc(Nc3nc(-c4ccncc4)nc4ccccc34)cc2F)cc1F
14,< 1,O=S(=O)(Nc1ccc2ccccc2c1)c1ccc(NCc2ccc(Br)cc2O)cc1
15,> 86,O=C(NCCCO)c1ccc(-c2ncc3cnc(-c4cccc(F)c4)cn23)cc1
16,< 1,CCOc1ccc(CCNC(=O)c2ccc(C(=O)c3ccccc3)cc2)cc1OCC
17,1.35,CN1C(=O)c2ccccc2[S@](=O)c2ccc(C(=O)NCc3cccnc3)cc21
18,2.64,O=[S+]([O-])(Nc1ccccc1)c1ccc(NCc2ccc(Cl)cc2O)cc1
